PubChem BioAssay (NCI)
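48-hour exposure; five concentrations; linearly interpolated endpoints. At the GI50, growth is halved. TGI marks complete inhibition of growth.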

How the values were obtained:
Assay in all cases: DTP human tumour cell line panel, 48 h
786-0 renal = tested on: 786-0 renal
A498 renal = tested on: A498 renal
A549 NSCLC = tested on: A549 NSCLC
ACHN renal = tested on: ACHN renal
BT-549 breast = tested on: BT-549 breast
CAKI-1 renal = tested on: CAKI-1 renal
CCRF-CEM leukemia = tested on: CCRF-CEM leukemia
COLO 205 colon = tested on: COLO 205 colon
DU-145 prostate = tested on: DU-145 prostate
EKVX NSCLC = tested on: EKVX NSCLC
HCC-2998 colon = tested on: HCC-2998 colon
HCT-116 colon = tested on: HCT-116 colon
HCT-15 colon = tested on: HCT-15 colon
HL-60(TB) leukemia = tested on: HL-60(TB) leukemia
HOP-62 NSCLC = tested on: HOP-62 NSCLC
HOP-92 NSCLC = tested on: HOP-92 NSCLC
HS 578T breast = tested on: HS 578T breast
HT29 colon = tested on: HT29 colon
IGROV1 ovarian = tested on: IGROV1 ovarian
K-562 leukemia = tested on: K-562 leukemia
KM12 colon = tested on: KM12 colon
LOX IMVI melanoma = tested on: LOX IMVI melanoma
M14 melanoma = tested on: M14 melanoma
MALME-3M melanoma = tested on: MALME-3M melanoma
MCF7 breast = tested on: MCF7 breast
MDA-MB-231 breast = tested on: MDA-MB-231 breast
MDA-MB-435 = tested on: MDA-MB-435
MDA-MB-468 breast = tested on: MDA-MB-468 breast
MOLT-4 leukemia = tested on: MOLT-4 leukemia
NCI-H226 lung = tested on: NCI-H226 lung
NCI-H23 lung = tested on: NCI-H23 lung
NCI-H460 lung = tested on: NCI-H460 lung
NCI-H522 lung = tested on: NCI-H522 lung
OVCAR-3 ovarian = tested on: OVCAR-3 ovarian
OVCAR-4 ovarian = tested on: OVCAR-4 ovarian
OVCAR-5 ovarian = tested on: OVCAR-5 ovarian
OVCAR-8 ovarian = tested on: OVCAR-8 ovarian
PC-3 prostate = tested on: PC-3 prostate
RPMI-8226 leukemia = tested on: RPMI-8226 leukemia
RXF 393 renal = tested on: RXF 393 renal
SF-268 CNS = tested on: SF-268 CNS
SF-295 CNS = tested on: SF-295 CNS
SF-539 CNS = tested on: SF-539 CNS
SK-MEL-2 melanoma = tested on: SK-MEL-2 melanoma
SK-MEL-28 melanoma = tested on: SK-MEL-28 melanoma
SK-MEL-5 melanoma = tested on: SK-MEL-5 melanoma
SK-OV-3 ovarian = tested on: SK-OV-3 ovarian
SN12C renal = tested on: SN12C renal
SNB-19 CNS = tested on: SNB-19 CNS
SNB-75 CNS = tested on: SNB-75 CNS
SR leukemia = tested on: SR leukemia
SW-620 colon = tested on: SW-620 colon
T-47D breast = tested on: T-47D breast
TK-10 renal = tested on: TK-10 renal
U251 CNS = tested on: U251 CNS
UACC-257 melanoma = tested on: UACC-257 melanoma
UACC-62 melanoma = tested on: UACC-62 melanoma
UO-31 renal = tested on: UO-31 renal

SMILES: COc1ccc2nc(Cl)c(-c3cc(-c4ccccc4)nc(=O)[nH]3)cc2c1
- GI50 (786-0 renal): 12.4 µM
- TGI (786-0 renal): 40.2 µM
- GI50 (A498 renal): 26.1 µM
- TGI (A498 renal): 74.3 µM
- GI50 (A549 NSCLC): 20.7 µM
- TGI (A549 NSCLC): > 100 µM
- GI50 (ACHN renal): 14.7 µM
- TGI (ACHN renal): 32.3 µM
- GI50 (BT-549 breast): 11.9 µM
- TGI (BT-549 breast): 28.7 µM
- GI50 (CAKI-1 renal): 12 µM
- TGI (CAKI-1 renal): 28.9 µM
- GI50 (CCRF-CEM leukemia): 2.96 µM
- TGI (CCRF-CEM leukemia): 34.3 µM
- GI50 (COLO 205 colon): 17 µM
- TGI (COLO 205 colon): 41.5 µM
- GI50 (DU-145 prostate): 8.82 µM
- TGI (DU-145 prostate): 29.3 µM
- GI50 (EKVX NSCLC): 24 µM
- TGI (EKVX NSCLC): > 100 µM
- GI50 (HCC-2998 colon): 16.5 µM
- TGI (HCC-2998 colon): 31.8 µM
- GI50 (HCT-116 colon): 6.67 µM
- TGI (HCT-116 colon): 26.2 µM
- GI50 (HCT-15 colon): 6.66 µM
- TGI (HCT-15 colon): 33.6 µM
- GI50 (HL-60(TB) leukemia): 5.32 µM
- TGI (HL-60(TB) leukemia): 33 µM
- GI50 (HOP-62 NSCLC): 14.8 µM
- TGI (HOP-62 NSCLC): 34.4 µM
- GI50 (HOP-92 NSCLC): 6.8 µM
- TGI (HOP-92 NSCLC): 42.5 µM
- GI50 (HS 578T breast): 24.8 µM
- TGI (HS 578T breast): > 100 µM
- GI50 (HT29 colon): 18.3 µM
- TGI (HT29 colon): 40.8 µM
- GI50 (IGROV1 ovarian): 17.9 µM
- TGI (IGROV1 ovarian): 44.1 µM
- GI50 (K-562 leukemia): 2.98 µM
- TGI (K-562 leukemia): 59.2 µM
- GI50 (KM12 colon): 4.25 µM
- TGI (KM12 colon): 17.1 µM
- GI50 (LOX IMVI melanoma): 3.86 µM
- TGI (LOX IMVI melanoma): 33.5 µM
- GI50 (M14 melanoma): 18.5 µM
- TGI (M14 melanoma): 46.8 µM
- GI50 (MALME-3M melanoma): 15.9 µM
- TGI (MALME-3M melanoma): 31.9 µM
- GI50 (MCF7 breast): 4.22 µM
- TGI (MCF7 breast): 31.6 µM
- GI50 (MDA-MB-231 breast): 16.7 µM
- TGI (MDA-MB-231 breast): 43.7 µM
- GI50 (MDA-MB-435): 14.8 µM
- TGI (MDA-MB-435): 34.1 µM
- GI50 (MDA-MB-468 breast): 11.4 µM
- TGI (MDA-MB-468 breast): 33.8 µM
- GI50 (MOLT-4 leukemia): 3.63 µM
- TGI (MOLT-4 leukemia): 54.1 µM
- GI50 (NCI-H226 lung): 12.7 µM
- TGI (NCI-H226 lung): 41.7 µM
- GI50 (NCI-H23 lung): 12 µM
- TGI (NCI-H23 lung): 32.7 µM
- GI50 (NCI-H460 lung): 5.69 µM
- TGI (NCI-H460 lung): 20.6 µM
- GI50 (NCI-H522 lung): 17 µM
- TGI (NCI-H522 lung): 42.4 µM
- GI50 (OVCAR-3 ovarian): 7.42 µM
- TGI (OVCAR-3 ovarian): 23.8 µM
- GI50 (OVCAR-4 ovarian): 20.4 µM
- TGI (OVCAR-4 ovarian): 79.9 µM
- GI50 (OVCAR-5 ovarian): 18.2 µM
- TGI (OVCAR-5 ovarian): 38.1 µM
- GI50 (OVCAR-8 ovarian): 16.6 µM
- TGI (OVCAR-8 ovarian): 88.8 µM
- GI50 (PC-3 prostate): 14.2 µM
- TGI (PC-3 prostate): 56 µM
- GI50 (RPMI-8226 leukemia): 3.08 µM
- TGI (RPMI-8226 leukemia): 13.5 µM
- GI50 (RXF 393 renal): 13.3 µM
- TGI (RXF 393 renal): 33 µM
- GI50 (SF-268 CNS): 14.6 µM
- TGI (SF-268 CNS): 35 µM
- GI50 (SF-295 CNS): 21.3 µM
- TGI (SF-295 CNS): 67.2 µM
- GI50 (SF-539 CNS): 11.2 µM
- TGI (SF-539 CNS): 23.9 µM
- GI50 (SK-MEL-2 melanoma): 18.5 µM
- TGI (SK-MEL-2 melanoma): 40.9 µM
- GI50 (SK-MEL-28 melanoma): 15.9 µM
- TGI (SK-MEL-28 melanoma): 31 µM
- GI50 (SK-MEL-5 melanoma): 16.8 µM
- TGI (SK-MEL-5 melanoma): 31.5 µM
- GI50 (SK-OV-3 ovarian): 20.9 µM
- TGI (SK-OV-3 ovarian): 51.2 µM
- GI50 (SN12C renal): 19.4 µM
- TGI (SN12C renal): 59 µM
- GI50 (SNB-19 CNS): 10.7 µM
- TGI (SNB-19 CNS): 26 µM
- GI50 (SNB-75 CNS): 13.1 µM
- TGI (SNB-75 CNS): 37.1 µM
- GI50 (SR leukemia): 1.55 µM
- TGI (SR leukemia): 5.47 µM
- GI50 (SW-620 colon): 6.44 µM
- TGI (SW-620 colon): 35.1 µM
- GI50 (T-47D breast): 25.8 µM
- TGI (T-47D breast): > 100 µM
- GI50 (TK-10 renal): 29 µM
- TGI (TK-10 renal): > 100 µM
- GI50 (U251 CNS): 4.45 µM
- TGI (U251 CNS): 19.9 µM
- GI50 (UACC-257 melanoma): 18.1 µM
- TGI (UACC-257 melanoma): 37.6 µM
- GI50 (UACC-62 melanoma): 13.8 µM
- TGI (UACC-62 melanoma): 28.6 µM
- GI50 (UO-31 renal): 10.5 µM
- TGI (UO-31 renal): 22.4 µM
